Test results from BigSolDB 2.1.

Settings: in water

O=C(O)COCC(=O)O
Settings | solubility (mole fraction)
278.25 K | 0.0365
284.15 K | 0.0469
288.75 K | 0.0686
293.75 K | 0.0748
296.65 K | 0.0823
301.25 K | 0.104
310.65 K | 0.128
313.15 K | 0.139
321.15 K | 0.161
323.15 K | 0.167
327.65 K | 0.188
332.65 K | 0.205
338.15 K | 0.22
343.15 K | 0.239
348.15 K | 0.254
353.05 K | 0.268
357.15 K | 0.284
361.35 K | 0.295

O=C(O)CCCCCCCC(=O)O
Settings | solubility (mole fraction)
280.15 K | 5.94e-05
285.85 K | 8.13e-05
291.85 K | 0.000117
298.15 K | 0.000171
307.85 K | 0.000287
316.15 K | 0.000336
325.75 K | 0.000481
330.15 K | 0.0007
334.65 K | 0.000931
338.15 K | 0.00128
344.15 K | 0.00132
347.65 K | 0.00153
353.05 K | 0.00191
357.65 K | 0.00173

O=C(O)CCCCCCC(=O)O
Settings | solubility (mole fraction)
280.15 K | 9.55e-05
285.85 K | 0.000128
291.85 K | 0.000177
298.15 K | 0.00025
305.65 K | 0.000341
307.65 K | 0.000369
313.15 K | 0.00042
317.65 K | 0.000485
323.35 K | 0.000579
325.85 K | 0.00064
334.65 K | 0.00101
337.15 K | 0.00117
343.25 K | 0.00149
349.65 K | 0.00212

CC(=O)CCC(=O)O
Settings | solubility (mole fraction)
280.15 K | 0.18
283.15 K | 0.214
287.65 K | 0.278
293.95 K | 0.374
298.15 K | 0.448
303.25 K | 0.519
